# In ChEMBL document CHEMBL1150358, “Substituted benzyl-pyrimidines targeting thymidine monophosphate kinase of Mycobacterium tuberculosis: synthesis and in vitro anti-mycobacterial activity” (Bioorg Med Chem, 2008):
# Active and inactive are the calls of the source. The calls are words filed in the database; no cut-off is given here.
# Test system: Mycobacterium tuberculosis
# Test: Antimicrobial activity against Mycobacterium bovis BCG 1173P2 after 8 days
# Format: functional
# Conditions: variant bovis BCG
row,Compound,Activity
1,Cc1cn([C@H]2C[C@H](O)[C@@H](CO)O2)c(=O)[nH]c1=O [DOXRIBTIMINE],inactive
2,CCCCCCc1ccc(Cn2cc(Cl)c(=O)[nH]c2=O)cc1,inactive
3,CCCCc1ccc(Cn2cc(Cl)c(=O)[nH]c2=O)cc1,inactive
4,Cc1cn(Cc2ccc(Br)cc2)c(=O)[nH]c1=O,inactive
5,O=c1[nH]c(=O)n([C@H]2C[C@H](O)[C@@H](CO)O2)cc1Br [BROXURIDINE],inactive
6,NC(=O)CCCCc1ccc(Cn2cc(Br)c(=O)[nH]c2=O)cc1,inactive
7,CCCCc1ccc(Cn2cc(Br)c(=O)[nH]c2=O)cc1,inactive
8,NC(=O)CCCCCc1ccc(Cn2cc(Br)c(=O)[nH]c2=O)cc1,inactive
9,CCCCCCc1ccc(Cn2cc(Br)c(=O)[nH]c2=O)cc1,inactive
10,Cc1cn(Cc2ccc(CCCCC(N)=O)cc2)c(=O)[nH]c1=O,inactive

# Same assay, conditions: variant bovis BCG, 192 h
row,Compound,MIC50
1,Cc1cn(Cc2ccc(CCCCCC(N)=O)cc2)c(=O)[nH]c1=O,230 µg/mL
2,O=C(O)CCCCc1ccc(Cn2cc(Br)c(=O)[nH]c2=O)cc1,100 µg/mL
3,NC(=O)CCCc1ccc(Cn2cc(Br)c(=O)[nH]c2=O)cc1,55 µg/mL
4,Cc1cn(Cc2ccc(C#CCCCC(=O)O)cc2)c(=O)[nH]c1=O,150 µg/mL
5,NC(=O)CCCCCc1ccc(Cn2cc(Cl)c(=O)[nH]c2=O)cc1,288 µg/mL
6,NC(=O)CCCc1ccc(Cn2cc(Cl)c(=O)[nH]c2=O)cc1,51 µg/mL
7,O=C(O)CCCc1ccc(Cn2ccc(=O)[nH]c2=O)cc1,225 µg/mL
8,Cc1cn(Cc2ccc(CCCCCC(=O)O)cc2)c(=O)[nH]c1=O,195 µg/mL
9,O=C(O)CCCc1ccc(Cn2cc(Br)c(=O)[nH]c2=O)cc1,50 µg/mL
10,COC(=O)CCCc1ccc(Cn2cc(Cl)c(=O)[nH]c2=O)cc1,260 µg/mL
11,NC(=O)CCCc1ccc(Cn2ccc(=O)[nH]c2=O)cc1,270 µg/mL
12,O=C(O)CCCCCc1ccc(Cn2cc(Cl)c(=O)[nH]c2=O)cc1,125 µg/mL
13,COC(=O)CCCc1ccc(Cn2cc(Br)c(=O)[nH]c2=O)cc1,180 µg/mL
14,Cc1cn(Cc2ccc(CCCCC(=O)O)cc2)c(=O)[nH]c1=O,120 µg/mL
15,O=C(O)CCCCCc1ccc(Cn2cc(Br)c(=O)[nH]c2=O)cc1,80 µg/mL
16,O=C(O)CCCCc1ccc(Cn2cc(Cl)c(=O)[nH]c2=O)cc1,120 µg/mL
17,O=C(O)CCCc1ccc(Cn2cc(Cl)c(=O)[nH]c2=O)cc1,45 µg/mL
18,Cc1cn(Cc2ccc(CCCCO)cc2)c(=O)[nH]c1=O,365 µg/mL
